Entries after “also recorded” stand apart in the source; their conditions may differ.
How the values were obtained:
[1] = Intrinsic clearance in human liver microsomes; type: in vitro ADME
NKCC1 [2] = target: T1, NKCC1 (Homo sapiens, UniProt P55011); assay: 86Rb uptake assay, NKCC1 function; type: cell-based; settings: concentrations up to 100 µM
T1 sequence (P55011 1-1212): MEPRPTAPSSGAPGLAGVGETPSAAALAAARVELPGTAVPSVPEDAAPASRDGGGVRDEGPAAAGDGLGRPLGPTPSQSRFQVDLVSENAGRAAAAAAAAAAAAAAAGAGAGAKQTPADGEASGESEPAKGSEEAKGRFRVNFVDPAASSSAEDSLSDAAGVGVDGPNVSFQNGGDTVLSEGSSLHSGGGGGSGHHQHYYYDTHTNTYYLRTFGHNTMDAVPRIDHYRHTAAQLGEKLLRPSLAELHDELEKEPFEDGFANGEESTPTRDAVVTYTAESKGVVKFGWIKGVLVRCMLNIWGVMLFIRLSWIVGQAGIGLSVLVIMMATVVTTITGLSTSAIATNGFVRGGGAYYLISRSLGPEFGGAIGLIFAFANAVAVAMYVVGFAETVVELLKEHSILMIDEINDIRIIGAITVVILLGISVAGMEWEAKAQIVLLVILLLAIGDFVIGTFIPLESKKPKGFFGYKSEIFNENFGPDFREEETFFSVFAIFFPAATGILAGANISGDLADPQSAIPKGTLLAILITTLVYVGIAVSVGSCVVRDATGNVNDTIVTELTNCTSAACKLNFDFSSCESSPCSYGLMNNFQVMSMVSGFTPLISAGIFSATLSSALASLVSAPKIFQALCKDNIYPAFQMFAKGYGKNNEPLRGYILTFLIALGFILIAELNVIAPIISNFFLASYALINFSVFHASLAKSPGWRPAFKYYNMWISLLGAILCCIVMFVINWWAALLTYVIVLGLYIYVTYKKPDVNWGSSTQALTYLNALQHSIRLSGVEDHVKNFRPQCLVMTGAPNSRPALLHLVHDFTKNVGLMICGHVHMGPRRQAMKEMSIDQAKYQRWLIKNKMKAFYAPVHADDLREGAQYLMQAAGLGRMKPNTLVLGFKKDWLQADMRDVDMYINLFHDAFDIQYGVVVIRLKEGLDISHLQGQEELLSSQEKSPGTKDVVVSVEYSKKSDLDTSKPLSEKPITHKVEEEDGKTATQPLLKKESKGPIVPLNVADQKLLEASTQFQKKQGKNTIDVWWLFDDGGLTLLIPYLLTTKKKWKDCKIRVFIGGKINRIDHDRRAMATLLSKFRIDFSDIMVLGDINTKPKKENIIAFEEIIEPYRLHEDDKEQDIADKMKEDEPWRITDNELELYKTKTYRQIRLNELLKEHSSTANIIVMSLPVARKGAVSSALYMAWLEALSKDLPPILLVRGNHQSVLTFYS

[3] = tested on: 68 GPCRs, ion channels and transporters; assay: Lead Profiling screen at Ricerca, radioligand binding assays
NKCC1 [4] = target: T1, NKCC1; settings: KCC2 versus NKCC1; cited from earlier work
KCC2 [5] = target: T2, KCC2 (Homo sapiens, UniProt Q9H2X9); assay: 86Rb uptake assay in KCC2-overexpressing HEK293 cells; type: cell-based; settings: first generation libraries, 2-pyridyl-based analogs
T2 sequence (Q9H2X9 1-1139): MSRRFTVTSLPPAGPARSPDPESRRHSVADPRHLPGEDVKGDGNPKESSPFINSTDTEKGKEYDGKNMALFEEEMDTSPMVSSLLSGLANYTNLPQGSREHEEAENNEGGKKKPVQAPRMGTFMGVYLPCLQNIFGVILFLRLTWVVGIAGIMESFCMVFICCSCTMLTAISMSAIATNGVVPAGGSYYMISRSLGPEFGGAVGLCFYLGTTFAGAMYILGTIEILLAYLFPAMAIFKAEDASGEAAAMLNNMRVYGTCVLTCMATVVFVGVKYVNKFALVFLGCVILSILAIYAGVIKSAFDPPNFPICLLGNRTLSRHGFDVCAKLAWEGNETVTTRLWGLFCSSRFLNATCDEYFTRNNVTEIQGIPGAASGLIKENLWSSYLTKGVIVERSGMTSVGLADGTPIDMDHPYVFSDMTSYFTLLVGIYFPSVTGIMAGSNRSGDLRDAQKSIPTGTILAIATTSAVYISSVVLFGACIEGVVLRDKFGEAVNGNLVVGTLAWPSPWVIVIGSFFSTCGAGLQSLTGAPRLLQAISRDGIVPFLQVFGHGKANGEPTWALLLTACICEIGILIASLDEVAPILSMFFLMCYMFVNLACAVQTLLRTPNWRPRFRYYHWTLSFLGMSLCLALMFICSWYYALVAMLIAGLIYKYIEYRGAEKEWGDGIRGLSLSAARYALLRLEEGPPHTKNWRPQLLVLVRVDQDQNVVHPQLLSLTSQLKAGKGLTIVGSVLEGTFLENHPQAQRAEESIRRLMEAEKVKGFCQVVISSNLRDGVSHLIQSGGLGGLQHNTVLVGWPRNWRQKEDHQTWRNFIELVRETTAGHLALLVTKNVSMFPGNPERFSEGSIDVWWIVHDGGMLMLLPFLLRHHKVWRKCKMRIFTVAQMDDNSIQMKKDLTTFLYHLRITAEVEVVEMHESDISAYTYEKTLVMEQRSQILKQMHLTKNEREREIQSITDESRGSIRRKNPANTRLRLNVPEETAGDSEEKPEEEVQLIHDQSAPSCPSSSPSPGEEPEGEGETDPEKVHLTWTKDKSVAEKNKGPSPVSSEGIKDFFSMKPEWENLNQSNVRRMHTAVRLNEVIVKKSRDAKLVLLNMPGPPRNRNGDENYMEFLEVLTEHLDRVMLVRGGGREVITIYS

KCC2 [6] = target: T2, KCC2; settings: intrathecal injection; cited from earlier work
[7] = Intrinsic clearance in rat liver microsomes; type: in vitro ADME

Structure (SMILES)	inhibition of NKCC1 function (in words) (NKCC1 [2])	selectivity versus NKCC1 (NKCC1 [4]) [fold]	KCC2 antagonist activity (in words) (KCC2 [5])	further results
Cc1csc(N(C(=O)CSc2ccc(-c3ccccc3)nn2)C2CC2)n1 [11k]	weak, partial inhibition; also recorded: weak partial inhibition	–	–	Intrinsic clearance (in words) [1]: rapidly cleared in vitro; inhibition in ancillary pharmacology panel ([3]; 10 µM, 68 targets): ≤ 50%; activity in ancillary pharmacology panel (in words) ([3]; panel of 68 GPCRs, ion channels and transporters): no activity
Cc1csc(NC(=O)CSc2ccc(-c3ccccc3)nn2)n1 [compound 1]	–	> 100	–	–
Cc1csc(NC(=O)CSc2ccc(-c3ccccc3)cn2)n1 [compound 9]	–	–	weak	–
Cc1csc(N(C)C(=O)CSc2ccc(-c3ccccc3)nn2)n1 [compound 2]	weak, partial inhibition; also recorded: weak partial inhibition	> 100	–	block of KCC2 in spinal cord (in words) (KCC2 [6]): used successfully to block KCC2 in spinal cord; CLint scaled [1]: 229 mL/min/kg; CLint scaled [7]: 294 mL/min/kg
Cc1csc(N(C)C(=O)CSc2ccc(-c3ccccc3)cn2)n1 [compound 10]	–	–	weak	–
